Source: US20260206756A1, “COMPOUNDS AND METHODS OF TREATING OR PREVENTING A BACTERIAL INFECTION IN A PLANT” (Ohio State Innovation Foundation, priority 2023, published 2026)

Tested on: pollinator honeybees
Test: Honeybee acute topical contact toxicity bioassay
Assay type: in vivo
Details: 48 h, PCs 200 μM, thiamethoxam 0.35 μg per bee
Procedure: Toxicity of the ten PCs on pollinator honeybees. To determine whether the ten selected PCs were toxic to honeybees, an acute topical bioassay was used as recommended by the Ecological Effects Test Guidelines (OCSPP 8503020: Honeybee Acute Contact Toxicity Test). Frames of late stage capped brood were collected from two healthy colonies headed by New Carniolan queens maintained at The Ohio State University Wooster Campus. New adult bees were allowed to emerge in a dark incubator maintained at 32° C. and 60-80% relative humidity and brushed into bulk storage cages daily. Bees were fed sucrose in water (1:1 w/w) and aged for three days in the incubator. Cages of 3-day-old honeybees were anesthetized using carbon dioxide for 2 min and separated into groups of 20 housed in paper cups (UNIQ 6 oz Cups; Frozen Dessert Supplies, Rexburg, Idaho, USA) covered with #20 cotton cheesecloth. The ten PCs were prepared at 200 μM concentration in DMSO. Small groups of honeybees were anaesthetized again with 30 s of carbon dioxide before topical application. The honeybees were individually treated by topically applying lul of the PCs on the dorsal side of thorax using a micro applicator (Hamilton PB-600, Reno, Nevada, USA). […] The mortality of the bees was recorded daily for 48 h. […]

## CN1COCN(Cc2cnc(Cl)s2)/C1=N\[N+](=O)[O-] [thiamethoxan, thiamethoxam]
  honeybee mortality: 100%
